Key:
ICR-CD1 mice [1] = experiment: Maternal betaine supplementation during lactation in mouse model of maternal obesity; format: in vivo
Description: (§1) All animal protocols were approved by the Institutional Animal Care and Use Committee of the University of Barcelona (Spain). Mice were housed on a 12-hour light-dark cycle with free access to food and water. Male and female ICR-CD1 mice (Envigo) were mated to obtain progeny. To minimize growth variability, litters were adjusted to 8 pups per dam at birth removing heaviest and lightest mice. Glycine betaine (1% wt/vol), ampicilin (1 g/L), and neomycin (0.5 g/L) (Sigma-Aldrich) were administered in water during lactation. After weaning, mice were housed 4 per cage and fed the 2014 Teklad diet (Envigo). For diet-induced obesity, a high-fat diet (HFD, 45% kcal from fat) was provided (D12451, Research Diets). For maternal obesity studies, 6-week-old females were fed HFD for 8 weeks before mating; this same diet was maintained through pregnancy and lactation. To assess milk intake, pups were separated from dams for 2 hours and returned to their cages for 1 hour; difference in body weight before and after the feeding was expressed as grams per initial body weight per hour. For milk harvesting, samples were collected manually under anesthesia (pentobarbital, 40 mg/kg) at day 14 after birth; dams and pups were sacrificed after milk collection, and cecal content obtained for microbiome studies. Body composition was determined by using a 7.0T Bruker Biospect MRI system (Bruker Medical Gmbh, Germany). Indirect calorimetry was measured in metabolic cages (PhenoMaster/LabMaster, TSE Systems GmbH, Germany); O2, CO2, food intake, and locomotor activity were monitored for 48 hours, and data analyzed using 2-way ANOVA for repeated measures. Intraperitoneal glucose (1.5 g/kg) and insulin (0.6 U/kg) tolerance test were performed after a 16 or 4 hour fast, respectively. Mice were anesthetized (intraperitoneal pentobarbital, 50 mg/kg) and sacrificed between 9-11 am.
To test whether betaine interacts with maternal obesity, betaine supplementation was performed during lactation in a mouse model of maternal obesity. Dams were fed a high-fat diet (HFD) for 8 weeks before mating, and randomly assigned to control (MO-C) or betaine treatment (MO-B) groups at delivery. Supplementation was performed as described above.
(§2) It was also investigated whether the above changes during early life translated into long-term metabolic improvements. Offspring was maintained on a chow diet after weaning and monitored up to 24 weeks of age. […] Consistent with lower adiposity, adipocyte size and inflammatory markers were decreased in male offspring from betaine-treated dams. […] Furthermore, basal insulin levels decreased by 40% in treatment compared to control group (p<0.05, FIG. 5D).

ICR-CD1 mice [2] = experiment: Diet-induced obesity (HFD for 16 weeks) in offspring of betaine-treated dams; format: in vivo
Description: as §1
(§3) Mouse milk samples were diluted 1:3 before macronutrient analysis by mid-infrared spectroscopy in a Miris Analyzer (Miris AB). Relative betaine concentrations were determined by liquid chromatography (Acquity UPLC BEH HILIC column, Waters) coupled to mass spectrometry (QqQ/MS 6490, Agilent). Plasma insulin was determined by ELISA (Millipore). Plasma MCP-1, IL-6 and PAI-1 were measured using Milliplex Map (EMD Millipore, Merck). Hepatic and fecal triglycerides were quantified in chloroform-methanol extracts from liver or feces (50 mg) using Triglyceride Assay Kit (Sigma-Aldrich).
It was then tested whether this early-life intervention protected against diet-induced obesity. To this end, 6-week-old offspring of lean control or betaine-treated dams were fed a HFD for 16 weeks (HF-C and HF-B groups, respectively). […] Supplementation ameliorated glucose tolerance (FIG. 6B), and decreased fasting glucose (Time 0, FIG. 6B) and insulin levels (FIG. 6C). Hepatic triglyceride accumulation was reduced by 30% in the HF-B group (p<0.05, FIG. 6D).

ICR-CD1 mice [3] = experiment: Intestinal epithelium and inflammatory markers in 6-week-old offspring of betaine-treated dams; format: in vivo
Description: as §1, §3
Total RNA from tissues was isolated with TRI Reagent (Sigma-Aldrich) and cDNA obtained with High-capacity cDNA kit (Applied Biosystems). qPCR was performed with SybrGreen (Takara Bio), using Hprt as housekeeping gene. Primer sequences are the following:
(§4) Tissues were fixed by immersion in formalin, paraffin-embedded, and sections stained with hematoxylin/eosin. For WAT, adipocyte area was measured in 30 random microscopic fields per animal (10-20 cells/field). For ileum, cross-sectional cuts were stained with Periodic acid-Schiff (PAS) method. Ten villi per mouse from 5-6 sections were analyzed. Goblet cell number per villus was determined and expressed as number of cells per 100 μm. Analyses were performed using ImageJ by a researcher blinded to sample ID.
These changes were accompanied by decreased mRNA levels of inflammatory markers (Ccl2, TIr4, Cd11c) in epididymal white adipose tissue (eWAT, FIG. 4B).

[4] = Betaine levels and composition of dam milk, and offspring plasma betaine, after maternal betaine supplementation during lactation; format: in vivo, mice
Description: All animal protocols were approved by the Institutional Animal Care and Use Committee of the University of Barcelona (Spain). Mice were housed on a 12-hour light-dark cycle with free access to food and water. Male and female ICR-CD1 mice (Envigo) were mated to obtain progeny. To minimize growth variability, litters were adjusted to 8 pups per dam at birth removing heaviest and lightest mice. Glycine betaine (1% wt/vol), ampicilin (1 g/L), and neomycin (0.5 g/L) (Sigma-Aldrich) were administered in water during lactation. After weaning, mice were housed 4 per cage and fed the 2014 Teklad diet (Envigo). […] To assess milk intake, pups were separated from dams for 2 hours and returned to their cages for 1 hour; difference in body weight before and after the feeding was expressed as grams per initial body weight per hour. […] Body composition was determined by using a 7.0T Bruker Biospect MRI system (Bruker Medical Gmbh, Germany). Indirect calorimetry was measured in metabolic cages (PhenoMaster/LabMaster, TSE Systems GmbH, Germany); O2, CO2, food intake, and locomotor activity were monitored for 48 hours, and data analyzed using 2-way ANOVA for repeated measures. […]
Mouse milk samples were diluted 1:3 before macronutrient analysis by mid-infrared spectroscopy in a Miris Analyzer (Miris AB). […] Plasma insulin was determined by ELISA (Millipore). […]

ICR-CD1 mice [5] = experiment: Maternal betaine supplementation during lactation, lean dams: offspring growth, adiposity and metabolism on chow diet; format: in vivo
Description: as §1, §3, §4
To study whether milk betaine modulates growth and obesity risk, we performed maternal supplementation experiments in mice exclusively during lactation. Dams were randomly assigned to control (C) or treatment (B, 1% betaine in water) groups the first day after delivery. Milk samples were collected at day 14 after birth from a subset of dams to determine betaine levels.
as §2

[6] = adult male offspring, chow diet

In the case of `C[N+](C)(C)CC(=O)O` [betaine, glycine betaine], the fat mass (ICR-CD1 mice [1]; 6 weeks of age, MO-B vs MO-C) is reported as “trend towards lower”, the milk intake (ICR-CD1 mice [1]; MO-B vs MO-C) is reported as “no differences” and the “offspring growth during lactation” value (ICR-CD1 mice [1]; MO-B vs MO-C, obese dams) is reported as “moderated”. The basal insulin levels (ICR-CD1 mice [1]; adult male offspring) was “decreased”, the glucose tolerance (ICR-CD1 mice [1]; adult male offspring) was “improved” and the “body weight and adiposity” value (ICR-CD1 mice [1]; [6]) was “lower”. For the same compound, the “reduction of hepatic triglyceride accumulation” value (ICR-CD1 mice [2]; HF-B group vs HF-C, male mice) was 30%, the fecal lipid content (ICR-CD1 mice [2]; HFD) was “no differences” and the cumulative food intake (ICR-CD1 mice [2]; HFD, did not reach statistical significance) was “modest numerical decrease”. The body weight gain (ICR-CD1 mice [2]; male and female offspring on HFD, HF-B vs HF-C) was “lower”, the insulin levels (ICR-CD1 mice [2]; male mice on HFD) was “decreased” and the glucose tolerance (ICR-CD1 mice [2]; male mice on HFD, 18 weeks of life) was “ameliorated”. For the same compound, the fasting glucose (ICR-CD1 mice [2]; male mice on HFD, Time 0) was “decreased”, the “mRNA levels of inflammatory markers (Ccl2, Tlr4, Cd11c) in eWAT” value (ICR-CD1 mice [3]; six-week-old male offspring) was “decreased” and the “circulating levels of IL-6” value (ICR-CD1 mice [3]; six-week-old male offspring, p<0.05) was “decreased”. For the same compound, the “circulating levels of MCP-1” value (ICR-CD1 mice [3]; six-week-old male offspring, p=0.08) was “numerical decrease”, the “circulating levels of PAI-1” value (ICR-CD1 mice [3]; six-week-old male offspring, p=0.25) was “numerical decrease” and the “expression of Ccl2 in brown adipose, liver, and skeletal muscle” value (ICR-CD1 mice [3]; six-week-old offspring) was “decreased”. The “ileal Muc2 mRNA expression” value (ICR-CD1 mice [3]; six-week-old offspring) was “increased”, the ileal villi length (ICR-CD1 mice [3]; six-week-old offspring) was “no differences” and the “increase of ileal goblet cell number” value (ICR-CD1 mice [3]; six-week-old offspring) was 1.3 fold. For the same compound, the “increase of milk betaine content” value ([4]; dam milk at day 14 after birth, 1% betaine in water during lactation, vs control) was 5 fold, the “increase of offspring plasma betaine” value ([4]; fourteen-day-old offspring of betaine-treated dams) was 1.8 fold and the glucose tolerance (ICR-CD1 mice [5]; adult female offspring) was “no effect”. For the same compound, the “adipocyte size and inflammatory markers” value (ICR-CD1 mice [5]; [6]) was “decreased”, the “decrease of basal insulin levels” value (ICR-CD1 mice [5]; adult male offspring, treatment vs control group) was 40% and the glucose tolerance (ICR-CD1 mice [5]; adult male offspring, week 20) was “notable improvement”. The “blood glucose at each time point in insulin tolerance testing” value (ICR-CD1 mice [5]; adult males) was “significantly lower”, the “response to insulin administration” value (ICR-CD1 mice [5]; adult males, insulin tolerance testing) was “no difference” and the hepatic triglyceride accumulation (ICR-CD1 mice [5]; adult offspring, chow diet) was “no significant effect”. For the same compound, the “body weight gain and eWAT weight” value (ICR-CD1 mice [5]; female offspring, chow diet) was “no effect”, the “offspring growth patterns during lactation” value (ICR-CD1 mice [5]; lean dams, 1% betaine in water) was “did not modulate” and the milk intake (ICR-CD1 mice [5]; lean dams, pups at 1 week of age) was “did not modulate”. The fat mass (ICR-CD1 mice [5]; male offspring at 6 weeks of age, vs control) was “decreased”, the eWAT weight (ICR-CD1 mice [5]; male offspring, chow diet, 24 weeks) was “decreased” and the “body weight gain throughout adulthood” value (ICR-CD1 mice [5]; male offspring, chow diet, up to 24 weeks of age) was “lower”. For the same compound, the “glucose tolerance, food intake, energy expenditure, respiratory exchange ratio, activity levels” value (ICR-CD1 mice [5]; young mice) was “did not differ”.
